# Measured values published in patent publication EP1097196B2, “GL[…]” (priority 1998, dated 2000).
# What was measured:
# Experiment in all cases: Specific activity as kcat on purified enzyme
# Assay type in all cases: biochemical
# Conditions in all cases: pH 4.3, 37°C, purified sample
# [1] = tested on: Aspergillus niger glucoamylase AMG G2 (SEQ ID NO: 2) variant V111P
# Experimental: (§1) Maltose: 29mM (1g maltose in 100ml 50mM sodium acetate, pH 4.5) (Sigma) Maltoheptaose: 10 mM, 115 mg/10 ml (Sigma)
# (§2) Determining Specific Activity As kcat (sec.^-1).
# (§3) 750 microL substrate (1% maltose, 50 mM Sodium acetat, pH 4.3) is incubated 5 minutes at selected temperature, such as 37°C or 60°C.
# (§4) 50 microL enzyme diluted in sodium acetate is added. Aliquots of 100 microL are removed after 0, 3, 6, 9 and 12 minutes and transferred to 100 microL 0.4 M Sodium hydroxide to stop the reaction. A blank is included. 20 microL is transferred to a Micro titre plates and 200 microL GOD-Perid solution is added. Absorbance is measured at 650 nm after 30 minutes incubation at room temperature. Glucose is used as standard and the specific activity is calculated as kcat (sec.^-1).
# (§5) AMG G2 variants were constructed as described above in Example 1. The specific activity as kcat were measured on purified samples at pH 4.3, 37°C, using maltose and maltohepatose as substrate as described in the "Materials & Methods" section above. The specific activity as AGU/mg were also measured at pH 4.3, 37°C, using maltose as substrate as described in the "Materials & Methods" section above.
# [2] = tested on: Aspergillus niger glucoamylase AMG G2 (wt), SEQ ID NO: 2
# Experimental: as §1, §2, §3, §4, §5
# [3] = tested on: Aspergillus niger glucoamylase AMG G2 (SEQ ID NO: 2) variant N110T
# Experimental: as §1, §2, §3, §4, §5
# [4] = tested on: Aspergillus niger glucoamylase AMG G2 (SEQ ID NO: 2) variant G207N
# Experimental: as §1, §2, §3, §4, §5
# [5] = tested on: Aspergillus niger glucoamylase AMG G2 (SEQ ID NO: 2) variant S119P
# Experimental: as §1, §2, §3, §4, §5
# [6] = tested on: Aspergillus niger glucoamylase AMG G2 (SEQ ID NO: 2) variant G127A
# Experimental: as §1, §2, §3, §4, §5
SMILES,Kcat (Maltoheptaose) ([1]; substrate maltoheptaose) [sec.-1],Kcat (Maltoheptaose) ([2]; substrate maltoheptaose) [sec.-1],Kcat (Maltoheptaose) ([3]; substrate maltoheptaose) [sec.-1],Kcat (Maltoheptaose) ([4]; substrate maltoheptaose) [sec.-1],Kcat (Maltoheptaose) ([5]; substrate maltoheptaose) [sec.-1],Kcat (Maltoheptaose) ([6]; substrate maltoheptaose) [sec.-1],Kcat (Maltose) ([1]; substrate maltose) [sec.-1],Kcat (Maltose) ([2]; substrate maltose) [sec.-1],Kcat (Maltose) ([3]; substrate maltose) [sec.-1],Kcat (Maltose) ([4]; substrate maltose) [sec.-1],Kcat (Maltose) ([5]; substrate maltose) [sec.-1],Kcat (Maltose) ([6]; substrate maltose) [sec.-1]
OC[C@H]1O[C@H](O[C@H]2[C@H](O)[C@@H](O)[C@@H](O[C@H]3[C@H](O)[C@@H](O)[C@@H](O[C@H]4[C@H](O)[C@@H](O)[C@@H](O[C@H]5[C@H](O)[C@@H](O)[C@@H](O[C@H]6[C@H](O)[C@@H](O)[C@@H](O[C@H]7[C@H](O)[C@@H](O)C(O)O[C@@H]7CO)O[C@@H]6CO)O[C@@H]5CO)O[C@@H]4CO)O[C@@H]3CO)O[C@@H]2CO)[C@H](O)[C@@H](O)[C@@H]1O (stereo partly drawn) [Maltoheptaose],43.2,38,27.8,36.3,44.0,40.0,,,,,,
OC[C@H]1O[C@H](O[C@H]2[C@H](O)[C@@H](O)C(O)O[C@@H]2CO)[C@H](O)[C@@H](O)[C@@H]1O (mixture of isomers) [Maltose],,,,,,,12.0,6.0,9.7,30.5,6.2,21.0
